Experimental data: the supplement of paper PMC10307832

Tests used:
Test in all cases: relative viability (nuclei count vs DMSO), 5 days (fraction); higher = more cells survive
201T = test system: 201T
Outline: (§1)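 Lung cancer cell lines were pin-tool dosed in 1536-well plates on the day after seeding, with either a lone drug or a fixed anchor-drug dose plus five library-drug doses (not always all listed) in √10 steps. Nuclei were counted on 4× images after 5 days. Relative viability is the ratio of treated-well to vehicle-well nuclei counts, with each value a median of duplicate plates.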

COR-L23 = test system: COR-L23
Outline: as §1

ChaGo-K-1 = test system: ChaGo-K-1
Outline: as §1

HARA = test system: HARA
Outline: as §1

HCC-15 = test system: HCC-15
Outline: as §1

HCC-366 = test system: HCC-366
Outline: as §1

HCC-78 = test system: HCC-78
Outline: as §1

LCLC-103H = test system: LCLC-103H
Outline: as §1

LCLC-97TM1 = test system: LCLC-97TM1
Outline: as §1

LOU-NH91 = test system: LOU-NH91
Outline: as §1

NCI-H1355 = test system: NCI-H1355
Outline: as §1

NCI-H1734 = test system: NCI-H1734
Outline: as §1

NCI-H1792 = test system: NCI-H1792
Outline: as §1

NCI-H2009 = test system: NCI-H2009
Outline: as §1

NCI-H2126 = test system: NCI-H2126
Outline: as §1

NCI-H441 = test system: NCI-H441
Outline: as §1

NCI-H460 = test system: NCI-H460
Outline: as §1

NCI-H596 = test system: NCI-H596
Outline: as §1

NCI-H647 = test system: NCI-H647
Outline: as §1

NCI-H650 = test system: NCI-H650
Outline: as §1

PC-14 = test system: PC-14
Outline: as §1

SW 900 = test system: SW 900
Outline: as §1

COCC1(CO)C(=O)C2CCN1CC2 (configuration not stated) [PRIMA-1MET] + Cc1nc(Nc2ncc(C(=O)Nc3c(C)cccc3Cl)s2)cc(N2CCN(CCO)CC2)n1 [Dasatinib] (partner 0.075 µM)
relative viability (201T; first compound 0.2 µM): 0.635
relative viability (201T; first compound 0.6325 µM): 0.369
relative viability (201T; first compound 2 µM): 0.59
relative viability (201T; first compound 6.325 µM): 0.566
relative viability (201T; first compound 20 µM): 0.582
relative viability (COR-L23; first compound 0.2 µM): 0.508
relative viability (COR-L23; first compound 0.6325 µM): 0.478
relative viability (COR-L23; first compound 2 µM): 0.595
relative viability (COR-L23; first compound 6.325 µM): 0.432
relative viability (COR-L23; first compound 20 µM): 0.0161
relative viability (ChaGo-K-1; first compound 0.2 µM): 0.626
relative viability (ChaGo-K-1; first compound 0.6325 µM): 0.567
relative viability (ChaGo-K-1; first compound 2 µM): 0.687
relative viability (ChaGo-K-1; first compound 6.325 µM): 0.54
relative viability (ChaGo-K-1; first compound 20 µM): 0.363
relative viability (HARA; first compound 0.2 µM): 0.303
relative viability (HARA; first compound 0.6325 µM): 0.257
relative viability (HARA; first compound 6.325 µM): 0.294
relative viability (HARA; first compound 20 µM): 0.252
relative viability (HCC-15; first compound 0.2 µM): 0.732
relative viability (HCC-15; first compound 0.6325 µM): 0.628
relative viability (HCC-15; first compound 2 µM): 0.639
relative viability (HCC-15; first compound 6.325 µM): 0.625
relative viability (HCC-15; first compound 20 µM): 0.181
relative viability (HCC-366; first compound 0.2 µM): 0.854
relative viability (HCC-366; first compound 0.6325 µM): 0.527
relative viability (HCC-366; first compound 2 µM): 0.619
relative viability (HCC-366; first compound 6.325 µM): 0.67
relative viability (HCC-366; first compound 20 µM): 0.318
relative viability (HCC-78; first compound 0.2 µM): 0.427
relative viability (HCC-78; first compound 0.6325 µM): 0.331
relative viability (HCC-78; first compound 6.325 µM): 0.442
relative viability (HCC-78; first compound 20 µM): 0.335
relative viability (LCLC-103H; first compound 0.2 µM): 0.566
relative viability (LCLC-103H; first compound 0.6325 µM): 0.422
relative viability (LCLC-103H; first compound 2 µM): 0.431
relative viability (LCLC-103H; first compound 6.325 µM): 0.447
relative viability (LCLC-103H; first compound 20 µM): 0.342
relative viability (LCLC-97TM1; first compound 0.2 µM): 0.461
relative viability (LCLC-97TM1; first compound 0.6325 µM): 1.01
relative viability (LCLC-97TM1; first compound 2 µM): 0.815
relative viability (LCLC-97TM1; first compound 6.325 µM): 0.855
relative viability (LCLC-97TM1; first compound 20 µM): 0.833
relative viability (LOU-NH91; first compound 0.2 µM): 0.608
relative viability (LOU-NH91; first compound 0.6325 µM): 0.508
relative viability (LOU-NH91; first compound 2 µM): 0.569
relative viability (LOU-NH91; first compound 6.325 µM): 0.578
relative viability (LOU-NH91; first compound 20 µM): 0.483
relative viability (NCI-H1355; first compound 0.2 µM): 0.793
relative viability (NCI-H1355; first compound 0.6325 µM): 0.571
relative viability (NCI-H1355; first compound 2 µM): 0.785
relative viability (NCI-H1355; first compound 6.325 µM): 0.766
relative viability (NCI-H1355; first compound 20 µM): 0.657
relative viability (NCI-H1734; first compound 0.2 µM): 0.498
relative viability (NCI-H1734; first compound 0.6325 µM): 0.303
relative viability (NCI-H1734; first compound 2 µM): 0.426
relative viability (NCI-H1734; first compound 6.325 µM): 0.384
relative viability (NCI-H1734; first compound 20 µM): 0.0495
relative viability (NCI-H1792; first compound 0.2 µM): 0.816
relative viability (NCI-H1792; first compound 0.6325 µM): 0.717
relative viability (NCI-H1792; first compound 2 µM): 0.811
relative viability (NCI-H1792; first compound 6.325 µM): 0.883
relative viability (NCI-H1792; first compound 20 µM): 0.754
relative viability (NCI-H2009; first compound 0.2 µM): 0.298
relative viability (NCI-H2009; first compound 0.6325 µM): 0.314
relative viability (NCI-H2009; first compound 2 µM): 0.294
relative viability (NCI-H2009; first compound 6.325 µM): 0.142
relative viability (NCI-H2009; first compound 20 µM): 0.0053
relative viability (NCI-H2126; first compound 0.2 µM): 0.722
relative viability (NCI-H2126; first compound 0.6325 µM): 0.58
relative viability (NCI-H2126; first compound 2 µM): 0.643
relative viability (NCI-H2126; first compound 6.325 µM): 0.646
relative viability (NCI-H2126; first compound 20 µM): 0.605
relative viability (NCI-H441; first compound 0.2 µM): 0.461
relative viability (NCI-H441; first compound 0.6325 µM): 0.728
relative viability (NCI-H441; first compound 2 µM): 0.544
relative viability (NCI-H441; first compound 6.325 µM): 0.571
relative viability (NCI-H441; first compound 20 µM): 0.134
relative viability (NCI-H460; first compound 0.2 µM): 0.495
relative viability (NCI-H460; first compound 0.6325 µM): 0.321
relative viability (NCI-H460; first compound 2 µM): 0.511
relative viability (NCI-H460; first compound 6.325 µM): 0.518
relative viability (NCI-H460; first compound 20 µM): 0.196
relative viability (NCI-H596; first compound 0.2 µM): 0.701
relative viability (NCI-H596; first compound 0.6325 µM): 0.563
relative viability (NCI-H596; first compound 2 µM): 0.597
relative viability (NCI-H596; first compound 6.325 µM): 0.79
relative viability (NCI-H596; first compound 20 µM): 0.147
relative viability (NCI-H647; first compound 0.2 µM): 0.165
relative viability (NCI-H647; first compound 0.6325 µM): 0.16
relative viability (NCI-H647; first compound 2 µM): 0.156
relative viability (NCI-H647; first compound 6.325 µM): 0.173
relative viability (NCI-H647; first compound 20 µM): 0.0339
relative viability (NCI-H650; first compound 0.2 µM): 0.565
relative viability (NCI-H650; first compound 2 µM): 0.469
relative viability (NCI-H650; first compound 6.325 µM): 0.472
relative viability (NCI-H650; first compound 20 µM): 0.454
relative viability (PC-14; first compound 0.2 µM): 0.249
relative viability (PC-14; first compound 0.6325 µM): 0.249
relative viability (PC-14; first compound 2 µM): 0.276
relative viability (PC-14; first compound 6.325 µM): 0.249
relative viability (PC-14; first compound 20 µM): 0.0176
relative viability (SW 900; first compound 0.2 µM): 0.632
relative viability (SW 900; first compound 0.6325 µM): 0.642
relative viability (SW 900; first compound 2 µM): 0.386
relative viability (SW 900; first compound 6.325 µM): 0.0491
relative viability (SW 900; first compound 20 µM): 0.0965
